Test results reported in US12102695B2, “Half-curcuminoids as amyloid-beta pet imaging agents” (The General Hospital Corporation, priority 2016, dated 2024).

Legend:
[1] = molecular target: T1, Aβ42 oligomers (Homo sapiens, UniProt P05067); assay: Binding constant (Kd) by fluorescence, Aβ42 oligomers; conditions: PBS pH 7.4
T1 construct: Synthetic Aβ peptides (1-40/42) were purchased from rPeptide; purchased rPeptide (Bogart, Ga.); host or cells: synthetic peptide
Protocol: (§1) Starting materials and solvents used in the Examples were purchased from commercial vendors and used without further purification, unless otherwise noted. The pH of the PBS buffer was 7.4. Column chromatography was performed on silica gel (SiliCycle Inc., 60 Å, […]) slurry packed into glass columns. Synthetic Aβ peptides (1-40/42) were purchased from rPeptide (Bogart, Ga., 30622). Aggregates for in vitro studies were generated by the slow stirring of Aβ40 in PBS buffer for 3 days at room temperature. CRANAD-101F (Example 1) was dissolved in DMSO to prepare a 25.0 μM stock solution. ^1H and ^13C NMR spectra were recorded at […] and 125 MHz, respectively, and reported in ppm downfield from tetramethylsilane (TMS). Fluorescence measurements were performed using an F-4500 fluorescence spectrophotometer (Hitachi). […]
(§2) To record the fluorescence response of CRANAD-101 with Aβs, the following procedure was used. Step 1: 1.0 mL of PBS buffer was added to a quartz cuvette as a blank control and its fluorescence was recorded with the same parameters as for CRANAD-101. Step 2: The fluorescence emission spectrum of a CRANAD-101 solution (1.0 mL, 250 nM) was recorded with excitation at 420 nm and emission from 450 to 800 nm. […] The emission spectra was recorded (Excitation=420 nm, Emission=450-800 nm). […]

[2] = tested on: Aβs, including monomers, dimers, oligomers, and aggregates; assay: Fluorescence spectral testing with Aβs; assay type: binding; conditions: probe 250 nM, Aβ 250 nM, PBS, excitation 420 nm, FIG. 2
Protocol: (§3) To record the fluorescence response of CRANAD-101 with Aβs, the following procedure was used. Step 1: 1.0 mL of PBS buffer was added to a quartz cuvette as a blank control and its fluorescence was recorded with the same parameters as for CRANAD-101. Step 2: The fluorescence emission spectrum of a CRANAD-101 solution (1.0 mL, 250 nM) was recorded with excitation at 420 nm and emission from 450 to 800 nm. Step 3: To the CRANAD-101 solution from Step 2, 10 μL Aβs (25 μM) was added (final concentration 250 nM). The emission spectra was recorded (Excitation=420 nm, Emission=450-800 nm). The final spectra from Steps 2 and 3 were corrected using the blank control from Step 1.
(§4) The emission peak of CRANAD-101 was approximately 550 nm, and its excitation peak was approximately 420 nm. To confirm whether CRANAD-101 was responsive to Aβs, including monomers, dimers, oligomers, and aggregates, PBS buffer was used as a blank, CRANAD-101 (250 nM, final concentration) was added in PBS buffer and the fluorescence intensity was recorded. Next, Aβ monomer (250 nM, final concentration) was added, and the fluorescence intensity was recorded. The same procedure was then performed for Aβ dimers, Aβ oligomers, and Aβ aggregates. The binding constant (Kd) of CRANAD-101 was also measured for Aβs.

[3] = molecular target: T2, Aβ42 dimers (Homo sapiens, UniProt P05067); assay: Binding constant (Kd) by fluorescence, Aβ42 dimers; conditions: PBS pH 7.4
T2 construct: Synthetic Aβ peptides (1-40/42) were purchased from rPeptide; purchased rPeptide (Bogart, Ga.); host or cells: synthetic peptide
T2 sequence (P05067 672-713 limits assumed): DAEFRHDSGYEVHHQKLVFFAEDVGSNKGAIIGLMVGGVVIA
Protocol: as §1, §2

[4] = molecular target: T3, Aβ42 monomers (Homo sapiens, UniProt P05067); assay: Binding constant (Kd) by fluorescence, Aβ42 monomers; conditions: PBS pH 7.4
T3 construct: Synthetic Aβ peptides (1-40/42) were purchased from rPeptide; purchased rPeptide (Bogart, Ga.); host or cells: synthetic peptide
T3 sequence (P05067 672-713 limits assumed): as above
Protocol: as §1, §2

[5] = Fluorescence spectrum of the probe; assay type: physicochemical
Protocol: as §3, §4

[6] = tested on: diffusible Aβ deposits; assay: Fluorescence microscopy of AD patient brain slice; parameters: species or system human; conditions: FIG. 3D
[7] = tested on: Aβ; assay: In vivo PET imaging, 14-month old APP/PS1 and WT mice; parameters: species or system mouse; conditions: i.v.
Protocol: In vivo PET imaging was conducted with 14-month old APP/PS1 mice (Charles River Laboratories, MA) and age-matched wild-type (WT) mice. Mice were injected via tail-vein with 100 μL of 20-30 μCi of [^18F]CRANAD-101 (Example 2) in 10% ethanol saline. MicroPET imaging experiments were performed on a Sophie Biosciences microPET G4 scanner (Culver City, Calif., USA). 60-Minute dynamic imaging was performed under general anesthesia (isoflurane/O2). Imaging analysis was conducted with Amide.
In vivo PET imaging was conducted with 14-month old APP/PS1 mice and age-matched WT mice. Mice were injected (i.v.) with 100 μL of 20-30 μCi of [^18F]CRANAD-101 in 10% ethanol saline. The specific activity was determined to be […] at the time of injection.

[8] = tested on: Aβ plaques and cerebral amyloid angiopathy (CAA); assay: Two-photon microscopic imaging of APP/PS1 mouse; assay type: in vivo; conditions: 15-month old APP/PS1 mouse, FIG. 5B
Protocol: (§5) To investigate whether CRANAD-101 was capable of penetrating brain blood barrier (BBB), two-photon microscopic imaging was conducted using a 15-month old wild type (WT) mouse. A mouse ([…]) was anesthetized with Ketamine/xylazine (70 mg/kg) and a cranial imaging window was surgically prepared. CRANAD-101 (2.0 mg/kg in a fresh solution containing 15% CREMOPHOR EL®, 15% DMSO and 70% PBS) was injected intravenously at time=0 min by a bolus injection during image acquisition. Two-photon fluorescence excitation was performed with a 900-nm laser (Prairie Ultima). Imaging was performed using a two-photon microscope (Prairie Technologies) equipped with a 20× water immersion objective (N.A. 1.0, Zeiss). Images were collected for 15 seconds per frame 512×512 μm matrix for 45 min with a green (500-550 nm) channel.
The accumulation of CRANAD-101 in the brain reached a peak at 10 minutes after i.v. injection (FIG. 5C, panel f). To examine whether CRANAD-101 could label Aβ plaques and cerebral amyloid angiopathy (CAA) in vivo, a similar two-photo microscopic imaging procedure was performed with a 15-month old APP/PS1 mouse.

[9] = Two-photon microscopic imaging of wild type mouse (BBB penetration); assay type: in vivo; conditions: WT mouse
Protocol: as §5

[10] = molecular target: T4, Aβ40 aggregates (Homo sapiens, UniProt P05067); assay: Binding constant (Kd) by fluorescence, Aβ aggregates; conditions: PBS pH 7.4
T4 construct: Synthetic Aβ peptides (1-40/42) were purchased from rPeptide; purchased rPeptide (Bogart, Ga.); host or cells: synthetic peptide
T4 sequence (P05067 672-711 limits assumed): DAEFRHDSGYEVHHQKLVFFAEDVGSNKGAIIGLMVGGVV
Protocol: as §1, §2

[11] = tested on: Aβ plaques; assay: Brain slice testing, fluorescence microscopy of APP/PS1 mouse brain slice; conditions: 11-month old APP/PS1 mouse slice, 25 μM, 30 minutes, FIG. 3A
Protocol: A brain slice of 11-month old APP/PS1 mouse was washed with double-distilled water for 5 minutes, then fixed with 4% formalin for 5 minutes, and washed with double-distilled water. First, a background image of a brain slice was taken using a fluorescence microscope. Next, an image was taken after the slice was incubated with CRANAD-101 (25 μM) for 30 minutes.

T1 sequence (P05067 672-713 limits assumed): as the sequence (P05067 672-713 limits assumed) above

Compound: Cc1nn(-c2ccc(OCCCF)cc2)cc1C=CC1=CC(C2CCC2)=[O+][B-](F)(F)O1 [CRANAD-101, (E)-4-(2-(6-cyclobutyl-2,2-difluoro-2H-1,3,2^4-dioxaborinin-4-yl)vinyl)-1-(4-(3-fluoropropoxy)phenyl)-3-methyl-1H-pyrazole]
- Kd [1]: 780 ± 173 nM
- fluorescence response to Aβs [2]: strong responses to Aβs
- Kd [3]: 44 ± 18.9 nM
- Kd [4]: 11.6 ± 11 nM
- emission peak [5]: approximately 550 nm
- excitation peak [5]: approximately 420 nm
- staining of Aβ deposits in AD patient brain slice [6]: can stain diffusible Aβ deposits
- penetration of the blood-brain barrier and brain accumulation vs other reported 18F labeled curcumin analogues [7]: much higher penetration of the blood-brain barrier (BBB) and brain accumulation
- labelling of Aβ plaques and CAA in vivo [8]: clearly highlighted Aβ plaques and CAAs
- crossing of the BBB ([9]; 2.0 mg/kg i.v., two-photon, FIG. 5A, 5C): quickly crossed the BBB
- time of peak accumulation in the brain ([9]; after i.v. injection 2.0 mg/kg, FIG. 5C panel f): 10 min
- Kd [10]: 188 ± 104 nM
- staining of Aβ plaques in brain slice [11]: Aβ plaques could be imaged after the incubation
